Key:
rat [1] = settings: Developmental neurotoxicity study; wistar; Injection; Subcutaneous; dose end: 42 PND; group: cannot be grouped; developmental / developmental malformation / general / crown-rump length + developmental / offspring survival late / [other] / [other] + …
mouse = settings: Developmental neurotoxicity study; other; Oral; [Not Specified]; dose end: 90 PND; group: cannot be grouped; systemic / in life observation / body weight / offspring (pup) weight gain + systemic / in life observation / clinical signs / convulsions
rat [2] = settings: Developmental neurotoxicity study; wistar; Injection; Subcutaneous; dose end: 68 PND; group: cannot be grouped; developmental / offspring survival late / [other] / [other] + systemic / hematology / leukocyte (wbc) count differential / leukocyte (wbc…
rat [3] = settings: Developmental neurotoxicity study; wistar; Oral; Water; dose end: 60 PND; group: cannot be grouped; systemic / in life observation / body weight / offspring (pup) weight
rat [4] = settings: Carcinogenicity; sprague dawley; Oral; Feed; dose end: 104 week; group: systemic; systemic / clinical chemistry / glucose / glucose + systemic / in life observation / body weight / body weight gain + systemic / in life …
rat [5] = settings: Chronic toxicity; sprague dawley; Oral; Feed; dose end: 78 week; group: systemic; systemic / clinical chemistry / glucose / glucose + systemic / in life observation / body weight / body weight gain + systemic / in life …
rabbit = settings: Prenatal developmental toxicity study; new zealand white; Oral; Gavage/Intubation; dose end: 19 GD; group: maternal; systemic / in life observation / body weight / body weight + systemic / in life observation / clinical signs / [other] + systemic / in life …

`N[C@@H](CCC(=O)O)C(=O)[O-].[Na+]` [Sodium l-glutamate] gave an LEL (rat [1]) of 0.004 mg/kg/day, an LOAEL (rat [1]) of over 0.004 mg/kg/day and an NEL (rat [1]) of under 0.004 mg/kg/day. It also gave an NOAEL (rat [1]) of at least 0.004 mg/kg/day, an LEL (mouse) of 2.5 mg/kg/day and an LOAEL (mouse) of over 4 mg/kg/day. It also gave an NEL (mouse) of under 2.5 mg/kg/day, an NOAEL (mouse) of at least 4 mg/kg/day and an LOAEL (rat [2]) of over 4000 mg/kg/day. The NEL (rat [2]) was under 4000 mg/kg/day, the NOAEL (rat [2]) was at least 4000 mg/kg/day and the LEL (rat [3]) was 10000 mg/kg/day. The NEL (rat [3]) was under 10000 mg/kg/day and the NOAEL (rat [3]) was at least 10000 mg/kg/day.
In the case of `OC[C@H]1O[C@H](O[C@]2(CCl)O[C@H](CCl)[C@@H](O)[C@@H]2O)[C@H](O)[C@@H](O)[C@H]1Cl` [Sucralose], the LEL (rat [4]) is reported as 150 mg/kg/day, the NEL (rat [4]) is reported as under 150 mg/kg/day and the NOAEL (rat [4]) is reported as at least 15000 mg/kg/day. It also gave an LEL (rat [5]) of 150 mg/kg/day, an LOAEL (rat [5]) of over 15000 mg/kg/day and an NEL (rat [5]) of under 150 mg/kg/day. It also gave an NOAEL (rat [5]) of at least 15000 mg/kg/day, an LEL (rabbit) of 700 mg/kg/day and an LOAEL (rabbit) of over 700 mg/kg/day. The NEL (rabbit) was 350 mg/kg/day and the NOAEL (rabbit) was at least 700 mg/kg/day.

Reference: EPA's ToxRefDB 2
